SMILES strings stand for the structures. Where two headings read alike, the source gives them in different places. Starred links: 1 amine or outer side, 2 acyl side, 3 side chain; linkers in the order of their positions; H or OH if unused. Positions of bridges follow the written chain, without caps; N, C: chain ends. Non-standard residues stand in square brackets, D forms with d. Residues, ends and D or L forms follow the SMILES beside them. *: point of attachment. NMeF = CN[C@@H](Cc1ccccc1)C(=O)O; NMeGABA = CN(CCCC(=O)[*:2])[*:1]; NMeβAla = CN(CCC(=O)[*:2])[*:1]; NMeL = CN[C@@H](CC(C)C)C(=O)O; NMeV = CN[C@H](C(=O)O)C(C)C; NMeA = CN[C@@H](C)C(=O)O; Piperidide = C1CCN(*)CC1; dNMeA = CN[C@H](C)C(=O)O; Sar = CNCC(=O)O; tBu = CC(C)(C)*

Data set [1] in a line: PAMPA (parallel artificial membrane permeability assay). The class given is in vitro ADME. Conditions: PAMPA. The essentials:
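Artificial membrane was 10% (w/v) egg lecithin plus 0.5% (w/v) cholesterol in dodecane on a PVDF filter. A 10 mM DMSO stock was added at 0.5% (v/v) to donor buffer (50 mM MOPSO, pH 6.5, 5.0% glycocholic acid). After 18 h at 37 °C, LC/MS or LC/UV gave donor and acceptor levels for Pe.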
Background: The PAMPA barrier holds no transporters, so it reflects passive diffusion.

Data set [2] is described as follows: Metabolic stability in human hepatic microsome. Type of data set: in vitro ADME. To be noted: microsomes.
Where [3] appears, read: membrane permeation rate (Pe), 50 mM MOPSO buffer pH 6.5 with 5.0% glycocholic acid, 37° C., 18 hours, read-out: iPAMPA Pe.
Where [4] appears, read: pH 7.4, human hepatic microsome, NADPH(+), read-out: CL NADPH(+).

In the case of `CC[C@H](C)[C@@H]1NC(=O)[C@H](CC(C)C)N(C)C(=O)CCCN(C)C(=O)C[C@@H](C(=O)N2CCCCC2)NC(=O)[C@H](CC(C)C)N(C)C(=O)[C@H](C)N(C)C(=O)[C@H]([C@@H](C)O)NC(=O)[C@H](CC(C)C)N(C)C(=O)[C@H](COC(C)(C)C)NC(=O)[C@H](Cc2ccccc2)N(C)C(=O)[C@H](Cc2ccccc2)N(C)C1=O` [DP-114] ([NMeGABA][NMeL]I[NMeF][NMeF]S(tBu)[NMeL]T[NMeA][NMeL]D-Piperidide; lactam N-11), the Papp at 18 hours, 50 µM in data set [1] (pH 6.5) came to 44 ×10⁻⁶ cm/s. Besides, in data set [2] (human, pH 7.4, CL NADPH(+)), the microsomal CLint at 1 uM was 56 µL/min/mg.
`CC[C@H](C)[C@@H]1NC(=O)[C@H](Cc2ccccc2)N(C)C(=O)[C@H](CC(C)C)NC(=O)[C@H](CC(C)C)NC(=O)[C@H](Cc2ccccc2)NC(=O)[C@H](CC(C)C)NC(=O)[C@@H](C)NC(=O)C[C@@H](C(=O)N2CCCCC2)NC(=O)[C@H](Cc2ccccc2)NC(=O)[C@H]([C@@H](C)O)NC1=O` [DP-115] ([dA]LFLL[NMeF]ITFD-Piperidide; lactam N-10): the Papp at 18 hours, 50 µM in data set [1] (setting [3]) turned out to be 0.45 ×10⁻⁶ cm/s. For the same compound, in data set [2] (setting [4]), the microsomal CLint at 1 uM came out at 28 µL/min/mg.
On the same counts, the results for `CC(C)C[C@@H]1NC(=O)[C@H]([C@@H](C)O)NC(=O)[C@H](CC(C)C)NC(=O)[C@H](CC(C)C)N(C)C(=O)[C@H](Cc2ccccc2)NC(=O)[C@H](Cc2ccccc2)NC(=O)[C@H](C)N(C)C(=O)C[C@@H](C(=O)N2CCCCC2)NC(=O)[C@H](Cc2ccccc2)N(C)C(=O)CNC1=O` [DP-116] ([NMeA]FF[NMeL]LTLG[NMeF]D-Piperidide; lactam N-10) are 23 ×10⁻⁶ cm/s and 333 µL/min/mg.
The corresponding values for `CC(C)C[C@@H]1NC(=O)CCN(C)C(=O)C[C@@H](C(=O)N2CCCCC2)NC(=O)[C@H](Cc2ccccc2)N(C)C(=O)CNC(=O)[C@H]([C@@H](C)O)NC(=O)[C@H](Cc2ccccc2)NC(=O)[C@H](CC(C)C)N(C)C(=O)[C@H](CC(C)C)NC(=O)[C@H](Cc2ccccc2)NC1=O` [DP-117] ([NMeβAla]LFL[NMeL]FTG[NMeF]D-Piperidide; lactam N-10) are 25 ×10⁻⁶ cm/s and 194 µL/min/mg.
As to `CC[C@H](C)[C@@H]1NC(=O)[C@H](CC(C)C)N(C)C(=O)CCN(C)C(=O)C[C@@H](C(=O)N2CCCCC2)NC(=O)[C@H](Cc2ccccc2)N(C)C(=O)[C@H](CC(C)C)NC(=O)CN(C)C(=O)[C@H]([C@@H](C)O)NC(=O)[C@H](C)N(C)C(=O)[C@H](C(C)C)N(C)C1=O` [DP-118] ([NMeβAla][NMeL]I[NMeV][NMeA]T[Sar]L[NMeF]D-Piperidide; lactam N-10), the Papp at 18 hours, 50 µM in data set [1] (pH 6.5) is 14 ×10⁻⁶ cm/s. The same compound had a microsomal CLint at 1 uM in data set [2] (human, pH 7.4, CL NADPH(+)) of 79 µL/min/mg.
Turning to `CC[C@H](C)[C@@H]1NC(=O)[C@H](Cc2ccccc2)NC(=O)[C@@H](C)N(C)C(=O)C[C@@H](C(=O)N2CCCCC2)NC(=O)[C@H](CC(C)C)NC(=O)[C@H](Cc2ccccc2)N(C)C(=O)[C@H](Cc2ccccc2)NC(=O)[C@H](CC(C)C)NC(=O)[C@H]([C@@H](C)O)NC(=O)[C@H](CC(C)C)NC1=O` [DP-119] ([dNMeA]FILTLF[NMeF]LD-Piperidide; lactam N-10), the Papp at 18 hours, 50 µM in data set [1] (setting [3]) is 16 ×10⁻⁶ cm/s. In data set [2] (setting [4]), the microsomal CLint at 1 uM was 67 µL/min/mg.
The corresponding values for `CC(C)C[C@@H]1NC(=O)[C@H](CC(C)C)N(C)C(=O)[C@H](Cc2ccccc2)N(C)C(=O)CNC(=O)[C@H]([C@@H](C)O)NC(=O)[C@H](CC(C)C)N(C)C(=O)[C@H](Cc2ccccc2)NC(=O)[C@@H](C)N(C)C(=O)C[C@@H](C(=O)N2CCCCC2)NC(=O)[C@H](COC(C)(C)C)NC1=O` [DP-120] ([dNMeA]F[NMeL]TG[NMeF][NMeL]LS(tBu)D-Piperidide; lactam N-10) are 50 ×10⁻⁶ cm/s and 84 µL/min/mg.
Take `CC[C@H](C)[C@@H]1NC(=O)[C@H](CC(C)C)N(C)C(=O)[C@H](C)NC(=O)CCCN(C)C(=O)C[C@@H](C(=O)N2CCCCC2)NC(=O)[C@H]([C@@H](C)O)NC(=O)[C@H](Cc2ccccc2)NC(=O)[C@H](C(C)C)N(C)C(=O)[C@H](CC(C)C)N(C)C(=O)[C@H](Cc2ccccc2)N(C)C1=O` [DP-121] ([NMeGABA]A[NMeL]I[NMeF][NMeL][NMeV]FTD-Piperidide; lactam N-10): in data set [1] (pH 6.5), the Papp at 18 hours, 50 µM was 41 ×10⁻⁶ cm/s. The microsomal CLint at 1 uM in data set [2] (human, pH 7.4, CL NADPH(+)) was 46 µL/min/mg.
The corresponding values for `CC(C)C[C@H]1C(=O)N(C)[C@@H](Cc2ccccc2)C(=O)N[C@@H]([C@@H](C)O)C(=O)N(C)[C@@H](C)C(=O)N(C)[C@@H](CC(C)C)C(=O)N(C)[C@@H](CC(C)C)C(=O)N[C@H](C(=O)N2CCCCC2)CC(=O)N(C)CCCC(=O)N[C@@H](COC(C)(C)C)C(=O)N(C)CC(=O)N1C` [DP-122] ([NMeGABA]S(tBu)[Sar][NMeL][NMeF]T[NMeA][NMeL][NMeL]D-Piperidide; lactam N-10) are 32 ×10⁻⁶ cm/s and 169 µL/min/mg.
For the compound `CC(C)C[C@H]1C(=O)N(C)[C@@H](CC(C)C)C(=O)N[C@H](C(=O)N(C)[C@@H](Cc2ccccc2)C(=O)N[C@@H](C)C(=O)N2CCCCC2)CC(=O)N[C@H](C(C)C)C(=O)N(C)[C@@H](C)C(=O)N(C)[C@@H](Cc2ccccc2)C(=O)N(C)[C@@H](CC(C)C)C(=O)N[C@@H]([C@@H](C)O)C(=O)N(C)CC(=O)N[C@@H](C(C)C)C(=O)N1C` [DP-123] ([dV][NMeA][NMeF][NMeL]T[Sar]V[NMeL][NMeL]D[NMeF]A-Piperidide; lactam N-10), in data set [1] (setting [3]), the Papp at 18 hours, 50 µM came to 58 ×10⁻⁶ cm/s. The microsomal CLint at 1 uM in data set [2] (setting [4]) is 21 µL/min/mg.
In data set [1] (pH 6.5), `CC[C@H](C)[C@@H]1NC(=O)[C@@H](C)N(C)C(=O)C[C@@H](C(=O)N(C)[C@@H](Cc2ccccc2)C(=O)N[C@@H](C)C(=O)N2CCCCC2)NC(=O)[C@H](Cc2ccccc2)N(C)C(=O)[C@H](C)NC(=O)[C@H](CC(C)C)N(C)C(=O)[C@H](C)N(C)C(=O)[C@H]([C@@H](C)O)NC(=O)[C@H](C(C)C)N(C)C(=O)[C@H](C)N(C)C1=O` [DP-124] ([dNMeA]I[NMeA][NMeV]T[NMeA][NMeL]A[NMeF]D[NMeF]A-Piperidide; lactam N-10) registered a Papp at 18 hours, 50 µM of 20 ×10⁻⁶ cm/s. Also, the microsomal CLint at 1 uM in data set [2] (human, pH 7.4, CL NADPH(+)) is 27 µL/min/mg.
Regarding `CC(C)C[C@@H]1NC(=O)[C@H](Cc2ccccc2)N(C)C(=O)[C@H](CC(C)C)N(C)C(=O)CCN(C)C(=O)C[C@@H](C(=O)N2CCCCC2)NC(=O)[C@H](CC(C)C)N(C)C(=O)[C@H](Cc2ccccc2)N(C)C(=O)[C@H]([C@@H](C)O)NC(=O)[C@H](Cc2ccccc2)N(C)C1=O` [DP-126] ([NMeβAla][NMeL][NMeF]L[NMeF]T[NMeF][NMeL]D-Piperidide; lactam N-9), the Papp at 18 hours, 50 µM in data set [1] (setting [3]) came out at 54 ×10⁻⁶ cm/s. In data set [2] (setting [4]), the microsomal CLint at 1 uM is 239 µL/min/mg.
The corresponding values for `CC(C)C[C@@H]1NC(=O)[C@@H](C)N(C)C(=O)C[C@@H](C(=O)N2CCCCC2)NC(=O)[C@H](CC(C)C)N(C)C(=O)[C@H](Cc2ccccc2)N(C)C(=O)[C@H](CC(C)C)NC(=O)[C@H](Cc2ccccc2)N(C)C(=O)[C@H](C)N(C)C(=O)[C@H]([C@@H](C)O)NC1=O` [DP-127] ([dNMeA]LT[NMeA][NMeF]L[NMeF][NMeL]D-Piperidide; lactam N-9) are 47 ×10⁻⁶ cm/s and 194 µL/min/mg.
On the same counts, the results for `CC(C)C[C@H]1C(=O)N[C@@H]([C@@H](C)O)C(=O)N(C)[C@@H](C)C(=O)N(C)[C@@H](CC(C)C)C(=O)N[C@H](C(=O)N2CCCCC2)CC(=O)N(C)CCCC(=O)N[C@@H](C)C(=O)N(C)[C@@H](Cc2ccccc2)C(=O)N[C@@H](Cc2ccccc2)C(=O)N1C` [DP-128] ([NMeGABA]A[NMeF]F[NMeL]T[NMeA][NMeL]D-Piperidide; lactam N-9) are 23 ×10⁻⁶ cm/s and 276 µL/min/mg.

The record behind these values is patent publication US9409952B2, “Peptide-compound cyclization method” (Chugai Seiyaku Kabushiki Kaisha, priority 2011, dated 2016).
